Assays:
[1] = Solubility in aqueous media; assay type: physicochemical
[2] = at clinically effective concentrations; cited from earlier work
[3] = Blood glucose levels after insulin; assay type: in vivo, rats; details: subcutaneous; 100 μg insulin/kg
Procedure: Porcine insulin (Sigma Chemical Co., St. Louis, Mo., Catalog No. 1 3505, specific activity: approximately 24 IU/mg) was encapsulated in 2,5-diketo- 3,6-di (4-fumarylamino)piperazine, prepared using the same method in Example 1, by dissolving the diketopiperazine in sodium bicarbonate to form a solution containing 12.5 mg diketopiperazine/ml solution. This solution was then mixed with an equal volume of citric acid solution containing porcine insulin at a concentration of 0.172 mg insulin/ml citric acid to form a white precipitate. The product was collected by centrifuge and washed once with 200 ml of deionized water, and then dried overnight in the lyophilizer. The product was assayed by HPLC and found to contain 1.6% insulin by weight.
In total, three male rats weighing about 200 g each were each administered a dose of 100 μg insulin/kg body weight. The dose was given subcutaneously and also as insulin encapsulated in diketopiperazine. Control animals received only the diketopiperazine and the vehicle, phosphate buffered saline. Blood glucose levels were measured on samples taken from the tail vein at various times after treatment and measured as mg of glucose/dl blood using one drop of tail blood squeezed onto a Glucofilm™ strip.

O=C(O)CCC(=O)NCCCCC1NC(=O)C(CCCCNC(=O)CCC(=O)O)NC1=O (stereo not shown) [2,5-diketo-3,6-di(4-succinylaminobutyl)piperazine]
solubility ([1]; acidic aqueous solutions): quite insoluble in acidic aqueous solutions
solubility ([1]; weakly alkaline aqueous solution): readily soluble in weakly alkaline aqueous solution

NC(=O)OCC(COC(N)=O)c1ccccc1 [felbamate]
solubility in aqueous media [2]: not soluble in aqueous media at clinically effective concentrations

encapsulated insulin by subcutaneous injection: Porcine insulin (Sigma Chemical Co.), given subcutaneously
blood glucose level [3]: A marked decrease in blood glucose level

Source: patent US5503852A, “Method for making self-assembling diketopiperazine drug delivery system” (Pharmaceutical Discovery Corporation, priority 1994, dated 1996)
